± gives the uncertainty stated by the source.
Test: xn = mol fraction of the nth substance listed

CCCC[n+]1ccn(C)c1.F[B-](F)(F)F + O
electrical conductivity (288.15 K, 100 kPa, x1 = 5.584e-05): 0.0319 ± 0.00068 S/m
viscosity (288.15 K, 100.3 kPa, x1 = 0.0005439): 1.148 ± 0.011 mPa·s
viscosity (288.15 K, 100.3 kPa, x1 = 0.0009901): 1.163 ± 0.011 mPa·s
viscosity (288.15 K, 100.3 kPa, x1 = 0.003018): 1.205 ± 0.011 mPa·s
viscosity (288.15 K, 100.3 kPa, x1 = 0.00501): 1.247 ± 0.012 mPa·s
viscosity (288.15 K, 100.3 kPa, x1 = 0.006973): 1.283 ± 0.012 mPa·s
viscosity (288.15 K, 100.3 kPa, x1 = 0.009052): 1.332 ± 0.012 mPa·s
viscosity (288.15 K, 100.3 kPa, x1 = 0.01199): 1.394 ± 0.012 mPa·s
viscosity (288.15 K, 100.3 kPa, x1 = 0.01499): 1.46 ± 0.013 mPa·s
viscosity (288.15 K, 100.3 kPa, x1 = 0.017): 1.506 ± 0.013 mPa·s
viscosity (293.15 K, 100 kPa, x1 = 0.0003603): 1.03 ± 0.061 mPa·s
viscosity (293.15 K, 100 kPa, x1 = 0.0003729): 1.03 ± 0.061 mPa·s
viscosity (293.15 K, 100 kPa, x1 = 0.0007203): 1.062 ± 0.061 mPa·s
viscosity (293.15 K, 100 kPa, x1 = 0.0007257): 1.062 ± 0.061 mPa·s
viscosity (293.15 K, 100 kPa, x1 = 0.00108): 1.093 ± 0.061 mPa·s
viscosity (293.15 K, 100 kPa, x1 = 0.0011): 1.093 ± 0.061 mPa·s
viscosity (293.15 K, 100.3 kPa, x1 = 0.0005439): 1.012 ± 0.01 mPa·s
viscosity (293.15 K, 100.3 kPa, x1 = 0.0009901): 1.024 ± 0.01 mPa·s
viscosity (293.15 K, 100.3 kPa, x1 = 0.003018): 1.058 ± 0.01 mPa·s
viscosity (293.15 K, 100.3 kPa, x1 = 0.00501): 1.095 ± 0.011 mPa·s
viscosity (293.15 K, 100.3 kPa, x1 = 0.006973): 1.126 ± 0.011 mPa·s
viscosity (293.15 K, 100.3 kPa, x1 = 0.009052): 1.168 ± 0.011 mPa·s
viscosity (293.15 K, 100.3 kPa, x1 = 0.01199): 1.221 ± 0.011 mPa·s
viscosity (293.15 K, 100.3 kPa, x1 = 0.01499): 1.277 ± 0.012 mPa·s
viscosity (293.15 K, 100.3 kPa, x1 = 0.017): 1.315 ± 0.012 mPa·s
viscosity (293.15 K, 101 kPa, x2 = 0.03402): 115.2 ± 3.6 mPa·s
viscosity (293.15 K, 101 kPa, x2 = 0.06153): 102.2 ± 3.1 mPa·s
electrical conductivity (293.15 K, 101 kPa, x2 = 0.1014): 0.5 ± 0.03 S/m
viscosity (293.15 K, 101 kPa, x2 = 0.3977): 26.7 ± 2.4 mPa·s
electrical conductivity (293.2 K, 101 kPa, frequency 6e-05 MHz, x2 = 0.2): 0.897 ± 0.009 S/m
electrical conductivity (293.2 K, 101 kPa, frequency 6e-05 MHz, x2 = 0.4): 1.401 ± 0.014 S/m
electrical conductivity (293.2 K, 101 kPa, frequency 6e-05 MHz, x2 = 0.6): 2.25 ± 0.023 S/m
electrical conductivity (293.2 K, 101 kPa, frequency 6e-05 MHz, x2 = 0.8): 3.53 ± 0.035 S/m
electrical conductivity (298.15 K, 100 kPa, x1 = 3.988e-05): 0.0281 ± 0.00069 S/m
viscosity (298.15 K, 100 kPa, x1 = 0.0003603): 0.917 ± 0.06 mPa·s
viscosity (298.15 K, 100 kPa, x1 = 0.0003729): 0.917 ± 0.061 mPa·s
viscosity (298.15 K, 100 kPa, x1 = 0.0007203): 0.951 ± 0.061 mPa·s
viscosity (298.15 K, 100 kPa, x1 = 0.0007257): 0.951 ± 0.061 mPa·s
viscosity (298.15 K, 100 kPa, x1 = 0.00108): 0.983 ± 0.061 mPa·s
viscosity (298.15 K, 100 kPa, x1 = 0.0011): 0.983 ± 0.061 mPa·s
viscosity (298.15 K, 100 kPa, x2 = 0.9487): 1.99 ± 0.1 mPa·s
viscosity (298.15 K, 100.3 kPa, x1 = 0.0005439): 0.8998 ± 0.0097 mPa·s
viscosity (298.15 K, 100.3 kPa, x1 = 0.0009901): 0.9108 ± 0.0098 mPa·s
viscosity (298.15 K, 100.3 kPa, x1 = 0.003018): 0.9406 ± 0.0099 mPa·s
viscosity (298.15 K, 100.3 kPa, x1 = 0.00501): 0.9719 ± 0.01 mPa·s
viscosity (298.15 K, 100.3 kPa, x1 = 0.006973): 0.9993 ± 0.01 mPa·s
viscosity (298.15 K, 100.3 kPa, x1 = 0.009052): 1.036 ± 0.01 mPa·s
viscosity (298.15 K, 100.3 kPa, x1 = 0.01199): 1.081 ± 0.011 mPa·s
viscosity (298.15 K, 100.3 kPa, x1 = 0.01499): 1.128 ± 0.011 mPa·s
viscosity (298.15 K, 100.3 kPa, x1 = 0.017): 1.162 ± 0.011 mPa·s
electrical conductivity (298.15 K, 101 kPa, x2 = 0): 0.194 ± 0.023 S/m
viscosity (298.15 K, 101 kPa, x2 = 0): 116 ± 40 mPa·s
viscosity (298.15 K, 101 kPa, x2 = 0.06153): 79.4 ± 1.9 mPa·s
electrical conductivity (298.15 K, 101 kPa, x2 = 0.1036): 0.274 ± 0.033 S/m
viscosity (298.15 K, 101 kPa, x2 = 0.1036): 81 ± 16 mPa·s
viscosity (298.15 K, 101 kPa, x2 = 0.1135): 64.3 ± 1.7 mPa·s
electrical conductivity (298.15 K, 101 kPa, x2 = 0.1877): 0.374 ± 0.045 S/m
viscosity (298.15 K, 101 kPa, x2 = 0.1877): 59.5 ± 4.5 mPa·s
electrical conductivity (298.15 K, 101 kPa, x2 = 0.2879): 0.528 ± 0.063 S/m
viscosity (298.15 K, 101 kPa, x2 = 0.2879): 42.1 ± 4.2 mPa·s
viscosity (298.15 K, 101 kPa, x2 = 0.3977): 22.3 ± 1.8 mPa·s
electrical conductivity (298.15 K, 101 kPa, x2 = 0.4094): 0.83 ± 0.1 S/m
viscosity (298.15 K, 101 kPa, x2 = 0.4094): 28.1 ± 2.8 mPa·s
electrical conductivity (298.15 K, 101 kPa, x2 = 0.4954): 1.21 ± 0.15 S/m
viscosity (298.15 K, 101 kPa, x2 = 0.4954): 20.8 ± 2.1 mPa·s
electrical conductivity (298.15 K, 101 kPa, x2 = 0.5908): 1.65 ± 0.2 S/m
viscosity (298.15 K, 101 kPa, x2 = 0.5908): 14.6 ± 1.6 mPa·s
electrical conductivity (298.15 K, 101 kPa, x2 = 0.6979): 2.42 ± 0.29 S/m
viscosity (298.15 K, 101 kPa, x2 = 0.6979): 9.5 ± 1.1 mPa·s
electrical conductivity (298.15 K, 101 kPa, x2 = 0.7971): 3.38 ± 0.41 S/m
viscosity (298.15 K, 101 kPa, x2 = 0.7971): 5.92 ± 0.74 mPa·s
electrical conductivity (298.15 K, 101 kPa, x2 = 0.8493): 4.79 ± 0.29 S/m
electrical conductivity (298.15 K, 101 kPa, x2 = 0.8953): 4.01 ± 0.48 S/m
viscosity (298.15 K, 101 kPa, x2 = 0.8953): 3.2 ± 0.43 mPa·s
electrical conductivity (298.15 K, 101 kPa, x2 = 0.9496): 4.83 ± 0.29 S/m
electrical conductivity (298.2 K, 101 kPa, frequency 6e-05 MHz, x2 = 0.2): 1.026 ± 0.01 S/m
electrical conductivity (298.2 K, 101 kPa, frequency 6e-05 MHz, x2 = 0.4): 1.613 ± 0.016 S/m
electrical conductivity (298.2 K, 101 kPa, frequency 6e-05 MHz, x2 = 0.6): 2.61 ± 0.026 S/m
electrical conductivity (298.2 K, 101 kPa, frequency 6e-05 MHz, x2 = 0.8): 4.1 ± 0.041 S/m
viscosity (303 K, 100 kPa, x1 = 0.6023): 18.87 ± 0.41 mPa·s
viscosity (303.15 K, 100 kPa, x1 = 0.0003603): 0.835 ± 0.06 mPa·s
viscosity (303.15 K, 100 kPa, x1 = 0.0003729): 0.835 ± 0.061 mPa·s
viscosity (303.15 K, 100 kPa, x1 = 0.0007203): 0.868 ± 0.061 mPa·s
viscosity (303.15 K, 100 kPa, x1 = 0.0007257): 0.868 ± 0.061 mPa·s
viscosity (303.15 K, 100 kPa, x1 = 0.00108): 0.904 ± 0.061 mPa·s
viscosity (303.15 K, 100 kPa, x1 = 0.0011): 0.904 ± 0.061 mPa·s
viscosity (303.15 K, 100.3 kPa, x1 = 0.0005439): 0.8079 ± 0.0093 mPa·s
viscosity (303.15 K, 100.3 kPa, x1 = 0.0009901): 0.8166 ± 0.0093 mPa·s
viscosity (303.15 K, 100.3 kPa, x1 = 0.003018): 0.8426 ± 0.0094 mPa·s
viscosity (303.15 K, 100.3 kPa, x1 = 0.00501): 0.87 ± 0.0096 mPa·s
viscosity (303.15 K, 100.3 kPa, x1 = 0.006973): 0.8927 ± 0.0097 mPa·s
viscosity (303.15 K, 100.3 kPa, x1 = 0.009052): 0.9275 ± 0.0099 mPa·s
viscosity (303.15 K, 100.3 kPa, x1 = 0.01199): 0.9648 ± 0.01 mPa·s
viscosity (303.15 K, 100.3 kPa, x1 = 0.01499): 1.006 ± 0.01 mPa·s
viscosity (303.15 K, 100.3 kPa, x1 = 0.017): 1.034 ± 0.01 mPa·s
viscosity (303.15 K, 101 kPa, x2 = 0): 74 ± 16 mPa·s
viscosity (303.15 K, 101 kPa, x2 = 0.06153): 63.1 ± 1.3 mPa·s
electrical conductivity (303.15 K, 101 kPa, x2 = 0.9252): 5.82 ± 0.35 S/m
electrical conductivity (303.2 K, 101 kPa, frequency 6e-05 MHz, x2 = 0.2): 1.16 ± 0.012 S/m
electrical conductivity (303.2 K, 101 kPa, frequency 6e-05 MHz, x2 = 0.4): 1.832 ± 0.018 S/m
electrical conductivity (303.2 K, 101 kPa, frequency 6e-05 MHz, x2 = 0.6): 2.95 ± 0.03 S/m
electrical conductivity (303.2 K, 101 kPa, frequency 6e-05 MHz, x2 = 0.8): 4.67 ± 0.047 S/m
viscosity (308 K, 100 kPa, x1 = 0.6023): 16.04 ± 0.35 mPa·s
electrical conductivity (308.15 K, 100 kPa, x1 = 3.988e-05): 0.0349 ± 0.00068 S/m
electrical conductivity (308.15 K, 100 kPa, x1 = 5.584e-05): 0.0437 ± 0.00071 S/m
